The subject of data set [1] is Poa pratensis subsp. pratensis. Put plainly: Herbicidal activity against Poa pratensis subsp. pratensis applied using logarithmic sprayer. The data set is classed as functional.
The test system of data set [2] is Festuca rubra. Put plainly: Toxicity against Festuca rubra applied using logarithmic sprayer. The data set is classed as organism-based. The note with it: in vivo.
Data set [3] is described as follows: Ratio of ED50 for Lolium perenne to ED50 for Poa pratensis subsp. Pratensis.
Data set [4] can be described thus: Ratio of ED50 for Festuca rubra L. to ED50 for Poa pratensis subsp. Pratensis.
Data set [5] can be described thus: Ratio of ED50 for Festuca arundinacea to ED50 for Poa pratensis subsp. Pratensis.
A short description of data set [6]: Ratio of ED50 for Festuca pratensis to ED50 for Poa pratensis subsp. Pratensis.
Data set [7] can be described thus: Selectivity index, ratio of ED10 for Festuca rubra L. to ED90 for Poa pratensis subsp. Pratensis.
Data set [8] concerns Poa pratensis subsp. pratensis. Kind of data set: Herbicidal activity against Poa pratensis subsp. pratensis applied during spring season using logarithmic sprayer. The data set is classed as functional.
Data set [9] concerns Festuca rubra. Put plainly: Toxicity against Festuca rubra applied applied during spring season using logarithmic sprayer. The data set is classed as organism-based. The note with it: in vivo.

`CCCN(CCC)C(=O)SCc1ccccc1` [PROSULFOCARB] came in with an ED50 in [1] of 2.337 kg/ha.

In the case of `COc1nc(C)nc(NC(=O)NS(=O)(=O)c2cc(I)ccc2C(=O)O)n1` [IODOSULFURON], the ED50 in data set [1] came out at 0.184 kg/ha; in the data set on Festuca rubra [2], 0.367 kg/ha.

As for `CCS(=O)(=O)c1nc2ccccn2c1S(=O)(=O)NC(=O)Nc1nc(OC)cc(OC)n1` [SULFOSULFURON], the Ratio ED50 in data set [3] is > 1. Besides, the ED50 in data set [1] came to 0.014 kg/ha; in the data set on Festuca rubra [2], 0.007 kg/ha.

In turn, `O=C(O)CNCP(=O)(O)O` [GLYPHOSATE] had an ED50 in the data set with Festuca rubra [2] of 0.263 L/ha.

Turning to `CCOC(=O)[C@@H](C)Oc1ccc(Oc2nc3ccc(Cl)cc3o2)cc1` [FENOXAPROP-P-ETHYL], the values for the ED50 (in [1]; with Festuca rubra [2]) were 0.408 kg/ha and 1.137 kg/ha, respectively. Besides, in data set [1], the ED90 was 0.68 kg/ha. For the same compound, the Ratio ED50 in [4], in data set [5] and in [6] was > 2 each time.

As for `CCC(CC)Nc1c([N+](=O)[O-])cc(C)c(C)c1[N+](=O)[O-]` [PENDIMETHALIN], the ED50 in data set [1] was found to be 1.761 L/ha; with Festuca rubra [2] it was 3.531 L/ha.

Turning to `C#CCOC(=O)[C@@H](C)Oc1ccc(Oc2ncc(Cl)cc2F)cc1` [CLODINAFOP PROPARGYL], the values for the ED50 (in [1]; in the data set on Festuca rubra [2]) were 0.192 kg/ha and 0.923 kg/ha, respectively. Also, the Selectivity Index in [7] is > 1.

`COc1cc(OC)nc(NC(=O)NS(=O)(=O)c2nc(C(F)(F)F)ccc2C(=O)O)n1` [FLUPYRSULFURON]: the ED50 is reported as 0.017 kg/ha in data set [1], 0.019 kg/ha in data set [8], 0.04 kg/ha in the data set with Festuca rubra [9] and 0.024 kg/ha in the data set with Festuca rubra [2]. Further, in data set [4], the Ratio ED50 is > 2.
